Reference: US9306235B2, “Redox flow battery” (SAMSUNG ELECTRONICS CO., LTD., priority 2010, dated 2016)

Assay: Evaluation of organic electrolyte solubility together with a supporting electrolyte
Assay type: physicochemical
Settings: generation of precipitates identified
Description: In the case where an organic electrolyte is used together with a supporting electrolyte, solubility of the organic electrolyte is evaluated. As the supporting electrolyte, TEABF4 and SBPBF4 are added to each of 0.0M, 0.2M, and 0.5M propylene carbonate aliquots, and then 1.2M Fe(bpy)3(BF4)2 is added to a final volume of 10 mL. The generation of precipitates is identified for each case.

[1] = supporting electrolyte 0.0 Mole (0.0M) in propylene carbonate
[2] = supporting electrolyte 0.2 Mole (0.2M) in propylene carbonate
[3] = supporting electrolyte 0.5 Mole (0.5M) in propylene carbonate

## C1CC[N+]2(C1)CCCC2.F[B-](F)(F)F [SBPBF4, spiro-(1,1′)-bipyrrolidiniumtetrafluoroborate]
[1]
  Solubility of 1.2M Fe(bpy)3(BF4)2: Soluble
[2]
  Solubility of 1.2M Fe(bpy)3(BF4)2: Soluble
[3]
  Solubility of 1.2M Fe(bpy)3(BF4)2: Soluble

## CC[N+](CC)(CC)CC.F[B-](F)(F)F [TEABF4, tetraethylammoniumtetrafluoroborate]
[1]
  Solubility of 1.2M Fe(bpy)3(BF4)2: Soluble
[2]
  Solubility of 1.2M Fe(bpy)3(BF4)2: Precipitation
[3]
  Solubility of 1.2M Fe(bpy)3(BF4)2: Precipitation
